{"source": "patent US20210267944A1", "about": "(BioXcel Therapeutics, Inc., priority 2018, published 2021)", "settings": "for Diastolic blood pressure Max / Diastolic blood pressure Mean ± SD / Diastolic blood pressure Median / Diastolic blood pressure Min / Pulse rate, Max / Pulse rate, Mean ± SD / Pulse rate, Median / Pulse rate, Min / Respiration rate, Max / Respiration rate, Mean ± SD / Respiration rate, Median / Respiration rate, Min / Systolic blood pressure, Max / Systolic blood pressure, Mean ± SD / Systolic blood pressure, Median / Systolic blood pressure, Min: SDAT patients, IV infusion", "procedure": "Study drug IV infusion was to be stopped at any time if any of the following occurred: • There was more than 20 mm Hg decrease in systolic or diastolic blood pressure. • There was an isolated drop in Systolic BP<100 mm of Hg. • There was an isolated drop Diastolic BP<60 mm of Hg. • There was a decrease in heart rate of 20 beats per minute or a drop below 50 beats per minute. • Attainment of a RASS of −1 at the end of each 30 minutes infusion period.\nReturn to baseline parameters was defined as BP falling within 15 mm of Hg of baseline reading prior to drug administration or HR falling within 10 beats per minute of baseline reading prior to drug administration.", "note": "Counter-ions that a name gives are not always drawn. Like-named read-outs stand apart in the source and are kept apart here."}
{"smiles": "Cc1cccc([C@H](C)c2cnc[nH]2)c1C", "note": "[dexmedetomidine hydrochloride]", "values": [{"measurement": "all the vital signs values", "setting": "SDAT", "result": "within clinically acceptable limits"}, {"measurement": "Diastolic blood pressure Max", "setting": "00:00 Hr", "result": "90 mm of Hg"}, {"measurement": "Diastolic blood pressure Mean ± SD", "setting": "00:00 Hr", "result": "80.9 ± 9.87 mm of Hg"}, {"measurement": "Diastolic blood pressure Median", "setting": "00:00 Hr", "result": "83.5 mm of Hg"}, {"measurement": "Diastolic blood pressure Min", "setting": "00:00 Hr", "result": "64 mm of Hg"}, {"measurement": "Pulse rate, Max", "setting": "00:00 Hr", "result": 91, "unit": "beats/min"}, {"measurement": "Pulse rate, Mean ± SD", "setting": "00:00 Hr", "result": "79.0 ± 9.02", "unit": "beats/min"}, {"measurement": "Pulse rate, Median", "setting": "00:00 Hr", "result": 78.0, "unit": "beats/min"}, {"measurement": "Pulse rate, Min", "setting": "00:00 Hr", "result": 64, "unit": "beats/min"}, {"measurement": "Respiration rate, Max", "setting": "00:00 Hr", "result": 26, "unit": "breaths/min"}, {"measurement": "Respiration rate, Mean ± SD", "setting": "00:00 Hr", "result": "19.6 ± 2.50", "unit": "breaths/min"}, {"measurement": "Respiration rate, Median", "setting": "00:00 Hr", "result": 19.5, "unit": "breaths/min"}, {"measurement": "Respiration rate, Min", "setting": "00:00 Hr", "result": 17, "unit": "breaths/min"}, {"measurement": "Systolic blood pressure, Max", "setting": "00:00 Hr", "result": "169 mm of Hg"}, {"measurement": "Systolic blood pressure, Mean ± SD", "setting": "00:00 Hr", "result": "143.2 ± 13.60 mm of Hg"}, {"measurement": "Systolic blood pressure, Median", "setting": "00:00 Hr", "result": "140.0 mm of Hg"}, {"measurement": "Systolic blood pressure, Min", "setting": "00:00 Hr", "result": "125 mm of Hg"}, {"measurement": "Diastolic blood pressure Max", "setting": "00:15 Hr", "result": "92 mm of Hg"}, {"measurement": "Diastolic blood pressure Mean ± SD", "setting": "00:15 Hr", "result": "82.1 ± 8.46 mm of Hg"}, {"measurement": "Diastolic blood pressure Median", "setting": "00:15 Hr", "result": "84.0 mm of Hg"}, {"measurement": "Diastolic blood pressure Min", "setting": "00:15 Hr", "result": "70 mm of Hg"}, {"measurement": "Pulse rate, Max", "setting": "00:15 Hr", "result": 89, "unit": "beats/min"}, {"measurement": "Pulse rate, Mean ± SD", "setting": "00:15 Hr", "result": "78.2 ± 9.85", "unit": "beats/min"}, {"measurement": "Pulse rate, Median", "setting": "00:15 Hr", "result": 80.0, "unit": "beats/min"}, {"measurement": "Pulse rate, Min", "setting": "00:15 Hr", "result": 57, "unit": "beats/min"}, {"measurement": "Respiration rate, Max", "setting": "00:15 Hr", "result": 26, "unit": "breaths/min"}, {"measurement": "Respiration rate, Mean ± SD", "setting": "00:15 Hr", "result": "18.3 ± 3.20", "unit": "breaths/min"}, {"measurement": "Respiration rate, Median", "setting": "00:15 Hr", "result": 17.0, "unit": "breaths/min"}, {"measurement": "Respiration rate, Min", "setting": "00:15 Hr", "result": 15, "unit": "breaths/min"}, {"measurement": "Systolic blood pressure, Max", "setting": "00:15 Hr", "result": "155 mm of Hg"}, {"measurement": "Systolic blood pressure, Mean ± SD", "setting": "00:15 Hr", "result": "138.0 ± 10.35 mm of Hg"}, {"measurement": "Systolic blood pressure, Median", "setting": "00:15 Hr", "result": "134.5 mm of Hg"}, {"measurement": "Systolic blood pressure, Min", "setting": "00:15 Hr", "result": "122 mm of Hg"}, {"measurement": "Diastolic blood pressure Max", "setting": "00:30 Hr", "result": "89 mm of Hg"}, {"measurement": "Diastolic blood pressure Mean ± SD", "setting": "00:30 Hr", "result": "80.3 ± 7.99 mm of Hg"}, {"measurement": "Diastolic blood pressure Median", "setting": "00:30 Hr", "result": "82.5 mm of Hg"}, {"measurement": "Diastolic blood pressure Min", "setting": "00:30 Hr", "result": "66 mm of Hg"}, {"measurement": "Pulse rate, Max", "setting": "00:30 Hr", "result": 94, "unit": "beats/min"}, {"measurement": "Pulse rate, Mean ± SD", "setting": "00:30 Hr", "result": "80.5 ± 10.43", "unit": "beats/min"}, {"measurement": "Pulse rate, Median", "setting": "00:30 Hr", "result": 76.5, "unit": "beats/min"}, {"measurement": "Pulse rate, Min", "setting": "00:30 Hr", "result": 64, "unit": "beats/min"}, {"measurement": "Respiration rate, Max", "setting": "00:30 Hr", "result": 24, "unit": "breaths/min"}, {"measurement": "Respiration rate, Mean ± SD", "setting": "00:30 Hr", "result": "18.1 ± 2.73", "unit": "breaths/min"}, {"measurement": "Respiration rate, Median", "setting": "00:30 Hr", "result": 18.0, "unit": "breaths/min"}, {"measurement": "Respiration rate, Min", "setting": "00:30 Hr", "result": 13, "unit": "breaths/min"}, {"measurement": "Systolic blood pressure, Max", "setting": "00:30 Hr", "result": "155 mm of Hg"}, {"measurement": "Systolic blood pressure, Mean ± SD", "setting": "00:30 Hr", "result": "135.9 ± 10.05 mm of Hg"}, {"measurement": "Systolic blood pressure, Median", "setting": "00:30 Hr", "result": "133.5 mm of Hg"}, {"measurement": "Systolic blood pressure, Min", "setting": "00:30 Hr", "result": "120 mm of Hg"}, {"measurement": "Diastolic blood pressure Max", "setting": "00:45 Hr", "result": "86 mm of Hg"}, {"measurement": "Diastolic blood pressure Mean ± SD", "setting": "00:45 Hr", "result": "76.4 ± 9.42 mm of Hg"}, {"measurement": "Diastolic blood pressure Median", "setting": "00:45 Hr", "result": "79.0 mm of Hg"}, {"measurement": "Diastolic blood pressure Min", "setting": "00:45 Hr", "result": "62 mm of Hg"}, {"measurement": "Pulse rate, Max", "setting": "00:45 Hr", "result": 90, "unit": "beats/min"}, {"measurement": "Pulse rate, Mean ± SD", "setting": "00:45 Hr", "result": "76.0 ± 9.48", "unit": "beats/min"}, {"measurement": "Pulse rate, Median", "setting": "00:45 Hr", "result": 77.0, "unit": "beats/min"}, {"measurement": "Pulse rate, Min", "setting": "00:45 Hr", "result": 58, "unit": "beats/min"}, {"measurement": "Respiration rate, Max", "setting": "00:45 Hr", "result": 20, "unit": "breaths/min"}, {"measurement": "Respiration rate, Mean ± SD", "setting": "00:45 Hr", "result": "18.1 ± 1.91", "unit": "breaths/min"}, {"measurement": "Respiration rate, Median", "setting": "00:45 Hr", "result": 18.0, "unit": "breaths/min"}, {"measurement": "Respiration rate, Min", "setting": "00:45 Hr", "result": 15, "unit": "breaths/min"}, {"measurement": "Systolic blood pressure, Max", "setting": "00:45 Hr", "result": "160 mm of Hg"}, {"measurement": "Systolic blood pressure, Mean ± SD", "setting": "00:45 Hr", "result": "138.3 ± 14.29 mm of Hg"}, {"measurement": "Systolic blood pressure, Median", "setting": "00:45 Hr", "result": "137.0 mm of Hg"}, {"measurement": "Systolic blood pressure, Min", "setting": "00:45 Hr", "result": "118 mm of Hg"}, {"measurement": "Diastolic blood pressure Max", "setting": "01:00 Hr", "result": "90 mm of Hg"}, {"measurement": "Diastolic blood pressure Mean ± SD", "setting": "01:00 Hr", "result": "74.5 ± 8.97 mm of Hg"}, {"measurement": "Diastolic blood pressure Median", "setting": "01:00 Hr", "result": "73.5 mm of Hg"}, {"measurement": "Diastolic blood pressure Min", "setting": "01:00 Hr", "result": "63 mm of Hg"}, {"measurement": "Pulse rate, Max", "setting": "01:00 Hr", "result": 89, "unit": "beats/min"}, {"measurement": "Pulse rate, Mean ± SD", "setting": "01:00 Hr", "result": "75.3 ± 10.08", "unit": "beats/min"}, {"measurement": "Pulse rate, Median", "setting": "01:00 Hr", "result": 74.0, "unit": "beats/min"}, {"measurement": "Pulse rate, Min", "setting": "01:00 Hr", "result": 60, "unit": "beats/min"}, {"measurement": "Respiration rate, Max", "setting": "01:00 Hr", "result": 20, "unit": "breaths/min"}, {"measurement": "Respiration rate, Mean ± SD", "setting": "01:00 Hr", "result": "18.1 ± 1.73", "unit": "breaths/min"}, {"measurement": "Respiration rate, Median", "setting": "01:00 Hr", "result": 18.0, "unit": "breaths/min"}, {"measurement": "Respiration rate, Min", "setting": "01:00 Hr", "result": 15, "unit": "breaths/min"}, {"measurement": "Systolic blood pressure, Max", "setting": "01:00 Hr", "result": "160 mm of Hg"}, {"measurement": "Systolic blood pressure, Mean ± SD", "setting": "01:00 Hr", "result": "134.4 ± 15.76 mm of Hg"}, {"measurement": "Systolic blood pressure, Median", "setting": "01:00 Hr", "result": "133.0 mm of Hg"}, {"measurement": "Systolic blood pressure, Min", "setting": "01:00 Hr", "result": "110 mm of Hg"}, {"measurement": "Diastolic blood pressure Max", "setting": "01:15 Hr", "result": "84 mm of Hg"}, {"measurement": "Diastolic blood pressure Mean ± SD", "setting": "01:15 Hr", "result": "74.6 ± 10.17 mm of Hg"}, {"measurement": "Diastolic blood pressure Median", "setting": "01:15 Hr", "result": "79.5 mm of Hg"}, {"measurement": "Diastolic blood pressure Min", "setting": "01:15 Hr", "result": "61 mm of Hg"}, {"measurement": "Pulse rate, Max", "setting": "01:15 Hr", "result": 94, "unit": "beats/min"}, {"measurement": "Pulse rate, Mean ± SD", "setting": "01:15 Hr", "result": "73.4 ± 11.56", "unit": "beats/min"}, {"measurement": "Pulse rate, Median", "setting": "01:15 Hr", "result": 71.5, "unit": "beats/min"}, {"measurement": "Pulse rate, Min", "setting": "01:15 Hr", "result": 58, "unit": "beats/min"}, {"measurement": "Respiration rate, Max", "setting": "01:15 Hr", "result": 20, "unit": "breaths/min"}, {"measurement": "Respiration rate, Mean ± SD", "setting": "01:15 Hr", "result": "18.4 ± 2.20", "unit": "breaths/min"}, {"measurement": "Respiration rate, Median", "setting": "01:15 Hr", "result": 19.5, "unit": "breaths/min"}]}
